# Results taken from patent US20170067014A1, “METHOD FOR GENERATING CELL CONDENSATE FOR SELF-ORGANIZATION” (PUBLIC UNIVERSITY CORPORATION YOKOHAMA CITY UNIVERSITY, priority 2014, published 2017).
# Tested on: condensate formation in cocultures of iPSC-hepatic endoderm cells, HUVECs and MSCs
# Experiment: Inhibitory experiment against cell condensate formation using chemical substances
# Type: cell-based, human
# Conditions: addition to the cocultures
# From the text: Hepatic endoderm cells derived from human induced pluripotent stem cells (iPSCs), umbilical cord-derived endothelial cells (HUVECs), and mesenchymal stem cells (MSCs) were labeled with distinctive fluorescent markers and cocultured on a solidified matrix gel which was already described. […] To elucidate dynamics of such condensate formation in more detail, the present inventors examined the temporal development of the position of the edge of the cell condensate (square root of cell area) and circularity by image analysis (FIG. 1b).
# On each well of a 24-well plate on which PA gel planar substrate was placed or to which Matrigel coating [Matrigel (BD) either in stock solution or as a mixture with medium at 1:1 was poured at 300 μl/well and left to stand in a 37° C., 5% CO2 incubator for 10 min until it solidified] was applied, 2×10^6 cells or more of multiple types in any combination (tissues isolated from embryo or adult, or KO-HepG2, HUVEC, etc.) as mixed with 2×10^5 MSCs were seeded. In order to form small-sized cell condensates, 4×10^3 cells or more of multiple types in any combination (tissues isolated from embryo or adult, or KO-HepG2, HUVEC) were mixed with 5×10^3 or more MSCs and seeded. In either case, the cells were subsequently cultured in a 37° C. incubator for a day. After seeding, chronological observation of cell coculture was performed with a stereomicroscope or a confocal microscope.
row,SMILES,effect on condensate formation
1,C[C@@H](N)[C@H]1CC[C@H](C(=O)Nc2ccncc2)CC1 [Sample Y-27632],partially delayed
2,Cc1ccc2c(c1)C(=O)C1(O)CCN(c3ccccc3)C1=N2 (stereo not drawn) [blebbistatin],completely antagonized
3,c1cc(CN2CCCNCCNCCCNCC2)ccc1CN1CCCNCCNCCCNCC1 [AMD3100],could not hinder
